The source of these data is paper PMC4746303, “Inactivation of Anopheles gambiae Glutathione Transferase ε2 by Epiphyllocoumarin” (Biochemistry Research International, 2016).

Experiment [1] addresses T1, Glutathione transferase epsilon 2 (AgGSTε2) (Anopheles gambiae, UniProt Q9GPL8).
T1 construct: recombinant AgGSTε2 expressed from pET3a in E. coli BL21 (DE3) pLysS
T1 sequence (Q9GPL8 1-221): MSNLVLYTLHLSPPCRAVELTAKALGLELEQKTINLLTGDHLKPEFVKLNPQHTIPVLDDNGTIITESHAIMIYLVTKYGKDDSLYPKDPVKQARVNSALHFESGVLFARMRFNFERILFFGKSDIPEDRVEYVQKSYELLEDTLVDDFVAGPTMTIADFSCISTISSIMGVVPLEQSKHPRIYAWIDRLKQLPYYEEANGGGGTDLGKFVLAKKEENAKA
As to the kind of experiment: time- and concentration-dependent inactivation of purified enzyme, GST activity (CDNB/GSH) assay; KI […], kinact […] min^-1. The format is biochemical.

For experiment [2], the target named is T1, Glutathione transferase epsilon 2 (AgGSTε2). As to the kind of experiment: time-dependent inactivation of purified enzyme at […] (positive control), half-life […] min. The format is biochemical.

Consider `O=c1ccc2c3c(c(O)cc2o1)C[C@@H](O)[C@@H](c1ccc(O)c(O)c1)O3` [Tral 1, epiphyllocoumarin], for which, in experiment [1], the KI (inactivation) is 7.5 ± 2.1 µM.
Regarding `C=C(CC)C(=O)c1ccc(OCC(=O)O)c(Cl)c1Cl` [ETA, ethacrynic acid], the “time-dependent inactivation of purified enzyme at 25 μM (positive control), half” value in experiment [2] was found to be 22 min.
